Patent US4077981A, “Certain 1-alkyl-2-dichlorophenyliminopyrrolidines” (Bayer Aktiengesellschaft, priority 1968, dated 1978)

Key:
Boophilus, Biarra strain = assay: In-vitro test for ovicidal and adulticidal effect on ticks; set-up: species or system Boophilus microplus; conditions: for Adulticidal and ovicidal effect: 50% inhibition with the stated concentration of active compound: Table 5, concentration giving 50% inhibition; for Adulticidal and ovicidal effect: 100% inhibition with the stated concentration of active compound: Table 5, concentration giving 100% inhibition
Description: In-vitro test for ovicidal and adulticidal effect on ticks
The ovicidal effect is determined as stated in Example 1.
In addition, the adulticidal effectiveness of the preparation of the given active compound after 24 hours is determined by ascertaining the voluntary movement of limbs and bodies of the immersed adult ticks after stimulation with a fine needle compared with the voluntary movement of limbs and bodies of the untreated adult ticks. The effectiveness is stated in %, 100% meaning that no movements of any kind of the limbs and bodies were any longer detectable, and 0% signifying that the ticks moved limbs and bodies in normal manner.
The results below were obtained in a similar manner to those in accordance with Example 4.

[1] = test system: Boophilus microplus, Biarra strain; assay: In-vivo test against ticks on cattle; set-up: species or system Boophilus microplus (on cattle); conditions: 0.3%; for Total number of female adult ticks which reach development on the cattle: total 1-21 days
Description: In-vivo test against ticks on cattle
3 parts of the particular active compound are mixed with 7 parts of a mixture of equal parts by weight of ethyleneglycol monomethyl ether and nonylphenyl polyglycol ether. The emulsion concentrate so obtained is diluted with water to the application concentration desired in each case.
Cattle which have been infected (12 times at intervals of 2 days) with resistant larvae of ticks of the species Boophilus microplus, Biarra strain, are sprayed on the 24th day after the first infection with the preparation of the given active compound so obtained.
The effect of the preparation of the given active compound is determined by ascertaining the number of adult female ticks which have reached development on the treated cattle and later lay viable eggs. This number is compared with the number of adult femal ticks which have reached development on untreated cattle.
As a measure of the intensity of the infestation before treatment, there is used the number of adult females which reach development in the case of the treated and untreated animals in the last three days before the time of treatment.

[2] = test system: Boophilus microplus, Biarra strain (resistant); assay: In-vitro test for ovicidal effect on ticks (Biarra strain); conditions: Table 1b; for Ovicidal effect: 100% inhibition with the stated concentration of active compound: concentration giving 100% inhibition; for Ovicidal effect: >50% inhibition with the stated concentration of active compound: concentration giving >50% inhibition
Description: (§1) In-vitro Test for Ovicidal Effect on Ticks
The emulsion concentrate so obtained is diluted with water to the application concentration desired in each case.
After immersion of, in each case, 10 female specimens of the various strains of ticks, the individual ticks are transferred to plastic dishes, the bottom of each of which is covered with a disc of filter paper.

[3] = test system: Boophilus microplus, Ridgeland strain (resistant); assay: In-vitro test for ovicidal effect on ticks (Ridgeland strain); conditions: Table 1b, * Ridgeland strain; for Ovicidal effect: 100% inhibition with the stated concentration of active compound: concentration giving 100% inhibition; for Ovicidal effect: >50% inhibition with the stated concentration of active compound: concentration giving >50% inhibition
Description: as §1
3 g of the particular active compound are mixed with 7 g of a mixture of equal parts by weight of ethyleneglycol monomethyl ether and nonylphenyl polyglycol ether. The emulsion concentrate so obtained is diluted with water to the application concentration desired in each case.
Adult, fully engorged female ticks of the species Boophilus microplus (resistant) are immersed for 1 minute in this preparation of the given active compound. After immersion of, in each case, 10 female specimens of the various strains of ticks, the individual ticks are transferred to plastic dishes, the bottom of each of which is covered with a disc of filter paper. As a control, similar ticks of a normally sensitive strain are treated in exactly the same manner.
After 35 days, the effectiveness of the preparation of the given active compound is determined by ascertaining the inhibition of the depositing of fertile eggs compared with the egg depositing of untreated control ticks. The effect is stated in %, 100% meaning that fertile eggs ceased to be deposited, and 0% signifying that the ticks have deposited eggs in normal manner like the untreated control ticks.

[4] = days before treatment -2 -1 0 (baseline)

SMILES | Adulticidal and ovicidal effect: 50% inhibition with the stated concentration of active compound (Boophilus, Biarra strain) [% by weight] | Adulticidal and ovicidal effect: 100% inhibition with the stated concentration of active compound (Boophilus, Biarra strain) [% by weight] | other results
C=C(C)CN1CCCC1=Nc1ccc(Cl)c(Cl)c1 | 0.03 | 0.1 | 
C=C(C)CN1CCCC1=Nc1ccc(Cl)cc1Cl | 0.01 | 0.03 | 
C=C(C)CN1CCCC1=Nc1cc(Cl)c(Cl)cc1Cl | 0.1 | 0.3 | 
C=C(C)CN1CCCC1=Nc1ccc(Cl)cc1C | 0.02 | 0.03 | 
C=C(C)CN1CCCC1=Nc1ccc(C)c(Cl)c1 | 0.03 | 0.1 | 
C=C(C)CN1CCCC1=Nc1ccc(Cl)c(C)c1 | 0.01 | 0.1 | 
C=CCCN1CCCC1=Nc1ccc(Cl)c(Cl)c1 | 0.1 | 0.3 | 
C=CCCN1CCCC1=Nc1ccc(C)c(Cl)c1 | 0.02 | 0.03 | 
C=CCCN1CCCC1=Nc1ccc(Cl)cc1C | 0.008 | 0.01 | 
C=CCN1CCCC1=Nc1ccc(C)c(Br)c1 | 0.03 | 0.1 | 
CCCCN1CCCC1=Nc1ccc(C)c(Br)c1 | 0.02 | 0.03 | 
C=CCN1CCCC1=Nc1ccc(Br)c(C)c1 | 0.03 | 0.1 | 
CCCCN1CCCC1=Nc1ccc(Br)c(C)c1 | 0.05 | 0.1 | 
C=CCN1CCCC1=Nc1ccc(Cl)c(Cl)c1 [Compound 41] |  |  | Number of female adult ticks which reach development on the cattle ([1]; days after treatment +1+2+3): 0; Number of female adult ticks which reach development on the cattle ([1]; days after treatment +4+5+6): 0; Number of female adult ticks which reach development on the cattle ([1]; days after treatment +7+8+9): 7; Number of female adult ticks which reach development on the cattle ([1]; days after treatment +10+11+12): 6; Number of female adult ticks which reach development on the cattle ([1]; days after treatment +13+14+15): 4; Number of female adult ticks which reach development on the cattle ([1]; days after treatment +16+17+18): 0; Number of female adult ticks which reach development on the cattle ([1]; days after treatment +19+20+21): 0; Number of female adult ticks which reach development on the cattle [1, 4]: 262; Total number of female adult ticks which reach development on the cattle [1]: 17; Ovicidal effect: 100% inhibition with the stated concentration of active compound [2]: 0.03 % by weight; Ovicidal effect: >50% inhibition with the stated concentration of active compound [2]: 0.01 % by weight
CCCCN1CCCC1=Nc1ccc(Cl)c(Cl)c1 [Compound 71] |  |  | Number of female adult ticks which reach development on the cattle ([1]; days after treatment +1+2+3): 3; Number of female adult ticks which reach development on the cattle ([1]; days after treatment +4+5+6): 1; Number of female adult ticks which reach development on the cattle ([1]; days after treatment +7+8+9): 0; Number of female adult ticks which reach development on the cattle ([1]; days after treatment +10+11+12): 11; Number of female adult ticks which reach development on the cattle ([1]; days after treatment +13+14+15): 1; Number of female adult ticks which reach development on the cattle ([1]; days after treatment +16+17+18): 2; Number of female adult ticks which reach development on the cattle ([1]; days after treatment +19+20+21): 0; Number of female adult ticks which reach development on the cattle [1, 4]: 231; Total number of female adult ticks which reach development on the cattle [1]: 18; Ovicidal effect: 100% inhibition with the stated concentration of active compound [2]: 0.03 % by weight; Ovicidal effect: >50% inhibition with the stated concentration of active compound [2]: 0.01 % by weight
CCCN1CCCC1=Nc1ccc(Cl)cc1C [Compound 211] |  |  | Ovicidal effect: 100% inhibition with the stated concentration of active compound [3]: 0.1 % by weight; Ovicidal effect: >50% inhibition with the stated concentration of active compound [3]: 0.03 % by weight
Cc1cc(Cl)ccc1N=C1CCCN1C(C)C [Compound 241] |  |  | Ovicidal effect: 100% inhibition with the stated concentration of active compound [3]: 1.0 % by weight; Ovicidal effect: >50% inhibition with the stated concentration of active compound [3]: 0.3 % by weight
